Experimental data published in patent publication US9447038B2 (SANOFI, priority 2012, dated 2016).
Structures can show the parent of a compound that is named as a salt.

molecular target: human CXCR3-A receptor (Homo sapiens (Human), UniProt P49682); assay: 125I-CXCL10 competition radioligand binding assay; details: displacement of 125I-CXCL10 from membranes of CHO cells expressing human recombinant CXCR3-A;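 also: One-hour incubation of membranes with tracer, bound radioligand separated by glass fibre filtration, IC50 derived from four-parameter nonlinear fit of competition curves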
Sequence (P49682 whole entry): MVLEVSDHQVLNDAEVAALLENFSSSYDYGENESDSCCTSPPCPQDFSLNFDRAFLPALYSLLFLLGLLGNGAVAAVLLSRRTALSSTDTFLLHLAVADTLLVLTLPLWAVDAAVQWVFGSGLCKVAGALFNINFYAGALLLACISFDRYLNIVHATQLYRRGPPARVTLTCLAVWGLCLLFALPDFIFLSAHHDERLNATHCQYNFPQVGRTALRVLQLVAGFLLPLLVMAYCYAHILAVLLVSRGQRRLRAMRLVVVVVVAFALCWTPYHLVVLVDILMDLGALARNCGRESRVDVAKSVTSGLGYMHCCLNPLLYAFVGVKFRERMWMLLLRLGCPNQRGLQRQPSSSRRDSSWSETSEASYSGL

Going from `CCCN(Cc1ccc(OCCN2C(=O)CCC2=O)c(F)c1)C(CC(=O)O)c1ccc(Cl)c(F)c1` (stereo not shown) [Example 58, 3-(4-Chloro-3-fluoro-phenyl)-3-({4-[2-(2,5-dioxo-pyrrolidin-1-yl)-ethoxy]-3-fluoro-benzyl}-propyl-amino)-propionic acid] to `CC(C)CN(Cc1ccc(OCCN2C(=O)CCC2=O)c(F)c1)[C@H](CC(=O)O)c1ccc(Cl)c(F)c1` [Example 22, (R)-3-(4-Chloro-3-fluoro-phenyl)-3-({4-[2-(2,5-dioxo-pyrrolidin-1-yl)-ethoxy]-3-fluoro-benzyl}-isobutyl-amino)-propionic acid; hydrochloride], the IC50 rises from 183 nM to 531 nM (2.9-fold). The first is the more potent here.

Compared with `CCc1cc(CN(CC2CCCCC2)C(CC(=O)O)c2ccc(Cl)c(F)c2)ccc1OCCN1C(=O)CCC1=O` (stereo not shown) [Example 95, 3-(4-Chloro-3-fluoro-phenyl)-3-(cyclohexylmethyl-{4-[2-(2,5-dioxo-pyrrolidin-1-yl)-ethoxy]-3-ethyl-benzyl}-amino)-propionic acid], `CCc1cc(CN(CC2CCCCC2)C(CC(=O)O)c2ccc(Cl)cc2)ccc1OCCN1C(=O)CCC1=O` (stereo not shown) [Example 89, 3-(4-Chloro-phenyl)-3-(cyclohexylmethyl-{4-[2-(2,5-dioxo-pyrrolidin-1-yl)-ethoxy]-3-ethyl-benzyl}-amino)-propionic acid] is 2.8-fold lower in IC50: 144 nM for the first, 51 nM for the second. The second is the more potent here.

First: CCc1cc(CN(CC(C)C)C(CC(=O)O)c2ccc(Cl)cc2)ccc1OCCN1C(=O)CCC1=O (stereo not shown) [Example 86, 3-(4-Chloro-phenyl)-3-({4-[2-(2,5-dioxo-pyrrolidin-1-yl)-ethoxy]-3-ethyl-benzyl}-isobutyl-amino)-propionic acid]
Second: CCCN(Cc1ccc(OCCN2C(=O)CCC2=O)c(Cl)c1)C(CC(=O)O)c1ccc(Cl)cc1 (stereo not shown) [Example 103, 3-({3-Chloro-4-[2-(2,5-dioxo-pyrrolidin-1-yl)-ethoxy]-benzyl}-propyl-amino)-3-(4-chloro-phenyl)-propionic acid]
The IC50 of the first is 14-fold lower: 12 nM for the first, 170 nM for the second. The first is the more potent here.

`CCCCN(Cc1ccc(OCCN2C(=O)CCC2=O)c(OC)c1)C(CC(=O)O)c1ccc(Cl)c(Cl)c1` (stereo not shown) [Example 48, 3-(Butyl-{4-[2-(2,5-dioxo-pyrrolidin-1-yl)-ethoxy]-3-methoxy-benzyl}-amino)-3-(3,4-dichloro-phenyl)-propionic acid] and `CCCCN(Cc1ccc(OCCN2C(=O)CCC2=O)c(C)c1)C(CC(=O)O)c1ccc(Cl)c(F)c1` (stereo not shown) [Example 76, 3-(Butyl-{4-[2-(2,5-dioxo-pyrrolidin-1-yl)-ethoxy]-3-methyl-benzyl}-amino)-3-(4-chloro-3-fluoro-phenyl)-propionic acid] are within 1.5-fold of each other in IC50: 61 nM for the first, 54 nM for the second.

`Cc1cc(CN(CC2CC2)[C@@H](CC(=O)O)c2ccc(Cl)c(Cl)c2)ccc1OCCN1C(=O)CCC1=O` [Example 26, (S)-3-(Cyclopropylmethyl-{4-[2-(2,5-dioxo-pyrrolidin-1-yl)-ethoxy]-3-methyl-benzyl}-amino)-3-(3,4-dichloro-phenyl)-propionic acid] and `Cc1cc(CN(CC2CC2)C(CC(=O)O)c2ccc(Cl)c(F)c2)ccc1OCCN1C(=O)CCC1=O` (stereo not shown) [Example 74, 3-(4-Chloro-3-fluoro-phenyl)-3-(cyclopropylmethyl-{4-[2-(2,5-dioxo-pyrrolidin-1-yl)-ethoxy]-3-methyl-benzyl}-amino)-propionic acid] are within 1.5-fold of each other in IC50: 39 nM for the first, 34 nM for the second.

`CCCCN(Cc1ccc(OCCN2C(=O)CCC2=O)c(C)c1)C1c2ccc(Cl)cc2CC1C(=O)O` (stereo not shown) [Example 173, 1-(Butyl-{4-[2-(2,5-dioxo-pyrrolidin-1-yl)-ethoxy]-3-methyl-benzyl}-amino)-5-chloro-indan-2-carboxylic acid] and `CCCN(Cc1ccc(OCCN2C(=O)CCC2=O)c(CC)c1)C(c1ccc(Cl)cc1)C1(C(=O)O)CC1` (stereo not shown) [Example 196, 1-[(4-Chloro-phenyl)-({4-[2-(2,5-dioxo-pyrrolidin-1-yl)-ethoxy]-3-ethyl-benzyl}-propyl-amino)-methyl]-cyclopropanecarboxylic acid] are within 1.5-fold of each other in IC50: 603 nM for the first, 630 nM for the second.

`CCCCN(Cc1ccc(OCCn2c(=O)ccn(C)c2=O)c(C)c1)C(CC(=O)O)c1ccc2c(c1)CCO2` (stereo not shown) [Example 161, 3-(Butyl-{3-methyl-4-[2-(3-methyl-2,6-dioxo-3,6-dihydro-2H-pyrimidin-1-yl)-ethoxy]-benzyl}-amino)-3-(2,3-dihydro-benzofuran-5-yl)-propionic acid] and `CCCCN(Cc1ccc(CCCN2C(=O)CCC2=O)c(OC)c1)C(CC(=O)O)c1ccc2c(c1)CCO2` (stereo not shown) [Example 140, 3-(Butyl-{4-[3-(2,5-dioxo-pyrrolidin-1-yl)-propyl]-3-methoxy-benzyl}-amino)-3-(2,3-dihydro-benzofuran-5-yl)-propionic acid] are within 1.5-fold of each other in IC50: 76 nM for the first, 51 nM for the second.

First: CCCN(Cc1ccc(OCCN2C(=O)CCC2=O)c(OC)c1)C(CC(=O)O)c1cc(C)sc1C (stereo not shown) [Example 204, 3-(2,5-Dimethyl-thiophen-3-yl)-3-({4-[2-(2,5-dioxo-pyrrolidin-1-yl)-ethoxy]-3-methoxy-benzyl}-propyl-amino)-propionic acid; hydrochloride]
Second: COc1cc(CN(CC2CCCC2)C(CC(=O)O)c2ccc(Cl)cc2Cl)ccc1OCCN1C(=O)CCC1=O (stereo not shown) [Example 3, 3-(Cyclopentylmethyl-{4-[2-(2,5-dioxo-pyrrolidin-1-yl)-ethoxy]-3-methoxy-benzyl}-amino)-3-(2,4-dichloro-phenyl)-propionic acid]
The IC50 of the first is 1.6-fold higher: 197 nM for the first, 120 nM for the second. The second is the more potent here.

First: COc1cc(CN(CC2CC2)[C@@H](C(=O)O)c2ccc(Cl)c(Cl)c2)ccc1OCCN1C(=O)CCC1=O [Example 111, (R)-(Cyclopropylmethyl-{4-[2-(2,5-dioxo-pyrrolidin-1-yl)-ethoxy]-3-methoxy-benzyl}-amino)-(3,4-dichloro-phenyl)-acetic acid]
Second: COc1cc(CN(CC2CCCC2)C(CC(=O)O)c2ccc(Cl)cc2)ccc1OCCN1C(=O)CCC1=O (stereo not shown) [Example 39, 3-(4-Chloro-phenyl)-3-(cyclopentylmethyl-{4-[2-(2,5-dioxo-pyrrolidin-1-yl)-ethoxy]-3-methoxy-benzyl}-amino)-propionic acid]
The IC50 of the first is 5.9-fold higher: 420 nM for the first, 71 nM for the second. The second is the more potent here.

Going from `Cc1cc(CN(CC2CCCC2)[C@H](CC(=O)O)c2ccc(Cl)c(F)c2)ccc1OCCN1C(=O)CN(C)C1=O` [Example 33, (R)-3-(4-Chloro-3-fluoro-phenyl)-3-(cyclopentylmethyl-{3-methyl-4-[2-(3-methyl-2,5-dioxo-imidazolidin-1-yl)-ethoxy]-benzyl}-amino)-propionic acid] to `COc1cc(CN(CC2CCCCC2)C(CC(=O)O)c2ccc(Cl)cc2)ccc1OCCN1C(=O)CCC1=O` (stereo not shown) [Example 40, 3-(4-Chloro-phenyl)-3-(cyclohexylmethyl-{4-[2-(2,5-dioxo-pyrrolidin-1-yl)-ethoxy]-3-methoxy-benzyl}-amino)-propionic acid], the IC50 falls from 86 nM to 40 nM (2.1-fold).

Compared with `COc1cc(CN(C2CCC2)C(CC(=O)O)c2ccc(Cl)cc2)ccc1CCCN1C(=O)CCC1=O` (stereo not shown) [Example 138, 3-(4-Chloro-phenyl)-3-(cyclobutyl-{4-[3-(2,5-dioxo-pyrrolidin-1-yl)-propyl]-3-methoxy-benzyl}-amino)-propionic acid], `COc1cc(CN(CC(C)C)C(CC(=O)O)c2ccc(Cl)c(Cl)c2)ccc1SCCN1C(=O)CCC1=O` (stereo not shown) [Example 193, 3-(3,4-Dichloro-phenyl)-3-({4-[2-(2,5-dioxo-pyrrolidin-1-yl)-ethylsulfanyl]-3-methoxy-benzyl}-isobutyl-amino)-propionic acid] is 2.6-fold lower in IC50: 190 nM for the first, 72 nM for the second. The second is the more potent here.
